Assay results: patent publication US10925283B2, “Microbiocidal phenylamidine derivatives” (SYNGENTA PARTICIPATIONS AG, priority 2016, dated 2021)

Legend:
Assay type in all cases: in vivo
[1] = system: Blumeria graminis f. sp. tritici (Erysiphe graminis f. sp. tritici); test: Blumeria graminis f. sp. tritici / wheat / leaf disc preventative (powdery mildew on wheat); details: foliar, wheat leaf segments cv. Kanzler, inoculated 1 day after application, assessed 6-8 days after application, read-out: control of Blumeria graminis f. sp. tritici (percent disease control compared to untreated)
Description: Blumeria graminis f. sp. tritici (Erysiphe graminis f. sp. tritici)/Wheat/Leaf Disc Preventative (Powdery Mildew on Wheat) Wheat leaf segments cv. Kanzler are placed on agar in a multiwell plate (24-well format) and sprayed with the formulated test compound diluted in water. The leaf disks are inoculated by shaking powdery mildew infected plants above the test plates 1 day after application. The inoculated leaf disks are incubated at 20° C. and 60% rh under a light regime of 24 h darkness followed by 12 h light/12 h darkness in a climate chamber and the activity of a compound is assessed as percent disease control compared to untreated when an appropriate level of disease damage appears on untreated check leaf segments (6-8 days after application).

[2] = system: Puccinia recondita f. sp. tritici; test: Puccinia recondita f. sp. tritici / wheat / leaf disc curative (brown rust); details: foliar, wheat leaf segments cv. Kanzler, compound applied 1 day after inoculation, assessed 6-8 days after application, read-out: control of Puccinia recondita f. sp. tritici (percent disease control compared to untreated)
Description: Puccinia recondita f. Sp. Tritici/Wheat/Leaf Disc Curative (Brown Rust) Wheat leaf segments cv. Kanzler are placed on agar in multiwell plates (24-well format). The leaf segments are inoculated with a spore suspension of the fungus. Plates are stored in darkness at 19° C. and 75% rh. The formulated test compound diluted in water is applied 1 day after inoculation. The leaf segments are incubated at 19° C. and 75% rh under a light regime of 12 h light/12 h darkness in a climate cabinet and the activity of a compound is assessed as percent disease control compared to untreated when an appropriate level of disease damage appears in untreated check leaf segments (6-8 days after application).

[3] = system: Puccinia recondita f. sp. tritici; test: Puccinia recondita f. sp. tritici / wheat / leaf disc preventative (brown rust); details: foliar, wheat leaf segments cv. Kanzler, inoculated 1 day after application, assessed 7-9 days after application, read-out: control of Puccinia recondita f. sp. tritici (percent disease control compared to untreated)
Description: Puccinia recondita f. Sp. Tritici/Wheat/Leaf Disc Preventative (Brown Rust) Wheat leaf segments cv. Kanzler are placed on agar in multiwell plates (24-well format) and sprayed with the formulated test compound diluted in water. The leaf disks are inoculated with a spore suspension of the fungus 1 day after application. The inoculated leaf segments are incubated at 19° C. and 75% rh under a light regime of 12 h light/12 h darkness in a climate cabinet and the activity of a compound is assessed as percent disease control compared to untreated when an appropriate level of disease damage appears in untreated check leaf segments (7-9 days after application).

How did the pest or weed control at 200 ppm [1] turn out when CCN(C)/C=N/c1cc(OC)c(C(O)(COCC(C)(C)COC(C)(C)C)C(F)(F)F)cc1C (stereo not drawn) [E.015, N′-[4-[1-[(3-tert-butoxy-2,2-dimethyl-propoxy)methyl]-2,2,2-trifluoro-1-hydroxy-ethyl]-5-methoxy-2-methyl-phenyl]-N-ethyl-N-methyl-formamidine] was run?
Its pest or weed control at 200 ppm is ≥ 80%.

What about the pest or weed control at 200 ppm [2] of the same molecule?
The pest or weed control at 200 ppm was ≥ 80%.

And the pest or weed control at 200 ppm [3]?
Its pest or weed control at 200 ppm is ≥ 80%.

How did the pest or weed control at 200 ppm [1] turn out when CCN(C)/C=N/c1cc(OC)c(C(O)(COCCc2ccc(F)cc2)C(F)(F)F)cc1C (stereo not drawn) [E.026, N-ethyl-N′-[5-methoxy-2-methyl-4-[2,2,2-trifluoro-1-[2-(4-fluorophenyl)ethoxymethyl]-1-hydroxy-ethyl]phenyl]-N-methyl-formamidine] was run?
Its pest or weed control at 200 ppm is ≥ 80%.

What about the pest or weed control at 200 ppm [2] of the same molecule?
Its pest or weed control at 200 ppm is ≥ 80%.

What about the pest or weed control at 200 ppm [3] of the same molecule?
The pest or weed control at 200 ppm was ≥ 80%.

What does the source list for CCN(C)/C=N/c1cc(OC)c(C(O)(COC2CCC2)C(F)(F)F)cc1C (stereo not drawn) [E.025, N′-[4-[1-(cyclobutoxymethyl)-2,2,2-trifluoro-1-hydroxy-ethyl]-5-methoxy-2-methyl-phenyl]-N-ethyl-N-methyl-formamidine]?
pest or weed control at 200 ppm [1]: ≥ 80%; pest or weed control at 200 ppm [2]: ≥ 80%; pest or weed control at 200 ppm [3]: ≥ 80%

For CCN(C)/C=N/c1cc(OC)c(C(O)(COCC2(CC)COC2)C(F)(F)F)cc1C (stereo not drawn) [E.034, N-ethyl-N′-[4-[1-[(3-ethyloxetan-3-yl)methoxymethyl]-2,2,2-trifluoro-1-hydroxy-ethyl]-5-methoxy-2-methyl-phenyl]-N-methyl-formamidine], which pest or weed control at 200 ppm [1] is on record?
The pest or weed control at 200 ppm was ≥ 80%.

What about the pest or weed control at 200 ppm [2] of the same molecule?
The pest or weed control at 200 ppm was ≥ 80%.

And the pest or weed control at 200 ppm [3]?
The pest or weed control at 200 ppm was ≥ 80%.

With CCN(C)/C=N/c1cc(OC)c(C(O)(CSC)C(F)(F)F)cc1C (stereo not drawn) [E.070, N-ethyl-N′-[5-methoxy-2-methyl-4-[2,2,2-trifluoro-1-hydroxy-1-(methylsulfanylmethyl)ethyl]phenyl]-N-methyl-formamidine] as the molecule, how does the pest or weed control at 200 ppm [1] read?
The pest or weed control at 200 ppm was ≥ 80%.

And the pest or weed control at 200 ppm [3]?
The pest or weed control at 200 ppm was ≥ 80%.

Which pest or weed control at 200 ppm [1] does the source give for C=CCOCCOCC(O)(c1cc(C)c(/N=C/N(C)CC)cc1OC)C(F)(F)F (stereo not drawn) [E.030, N′-[4-[1-(2-allyloxyethoxymethyl)-2,2,2-trifluoro-1-hydroxy-ethyl]-5-methoxy-2-methyl-phenyl]-N-ethyl-N-methyl-formamidine] here?
The pest or weed control at 200 ppm was ≥ 80%.

What about the pest or weed control at 200 ppm [2] of the same molecule?
The pest or weed control at 200 ppm was ≥ 80%.

And the pest or weed control at 200 ppm [3]?
Its pest or weed control at 200 ppm is ≥ 80%.

CCC1CCC(OCC(O)(c2cc(C)c(/N=C/N(C)CC)cc2OC)C(F)(F)F)CC1 (stereo not drawn) [E.033, N-ethyl-N′-[4-[1-[(4-ethylcyclohexoxy)methyl]-2,2,2-trifluoro-1-hydroxy-ethyl]-5-methoxy-2-methyl-phenyl]-N-methyl-formamidine] was tested. Which pest or weed control at 200 ppm [1] did it give?
The pest or weed control at 200 ppm was ≥ 80%.

What about the pest or weed control at 200 ppm [2] of the same molecule?
Its pest or weed control at 200 ppm is ≥ 80%.

And the pest or weed control at 200 ppm [3]?
The pest or weed control at 200 ppm was ≥ 80%.

What does the source list for CCN(C)/C=N/c1cc(OC)c(C(O)(COCc2ccccc2C)C(F)(F)F)cc1C (stereo not drawn) [E.029, N-ethyl-N′-[5-methoxy-2-methyl-4-[2,2,2-trifluoro-1-hydroxy-1-(o-tolylmethoxymethyl)ethyl]phenyl]-N-methyl-formamidine]?
pest or weed control at 200 ppm [1]: ≥ 80%; pest or weed control at 200 ppm [2]: ≥ 80%; pest or weed control at 200 ppm [3]: ≥ 80%

Which pest or weed control at 200 ppm [1] does the source give for CCN(C)/C=N/c1cc(OC)c(C(O)(COCCON=C(C)C)C(F)(F)F)cc1C (stereo not drawn) [E.016, N-ethyl-N′-[5-methoxy-2-methyl-4-[2,2,2-trifluoro-1-hydroxy-1-[2-(isopropylideneamino)oxyethoxymethyl]ethyl]phenyl]-N-methyl-formamidine] here?
Its pest or weed control at 200 ppm is ≥ 80%.

And the pest or weed control at 200 ppm [2]?
Its pest or weed control at 200 ppm is ≥ 80%.

And the pest or weed control at 200 ppm [3]?
Its pest or weed control at 200 ppm is ≥ 80%.

What does the source list for CCN(C)/C=N/c1cc(OC)c(C(O)(COCC2(C)COC2)C(F)(F)F)cc1C (stereo not drawn) [E.018, N-ethyl-N′-[5-methoxy-2-methyl-4-[2,2,2-trifluoro-1-hydroxy-1-[(3-methyloxetan-3-yl)methoxymethyl]ethyl]phenyl]-N-methyl-formamidine]?
pest or weed control at 200 ppm [1]: ≥ 80%; pest or weed control at 200 ppm [2]: ≥ 80%; pest or weed control at 200 ppm [3]: ≥ 80%

For CCN(C)/C=N/c1cc(OC)c(C(O)(COCc2ccc3ccccc3c2)C(F)(F)F)cc1C (stereo not drawn) [E.009, N-ethyl-N′-[5-methoxy-2-methyl-4-[2,2,2-trifluoro-1-hydroxy-1-(2-naphthylmethoxymethyl)ethyl]phenyl]-N-methyl-formamidine], which pest or weed control at 200 ppm [1] is on record?
Its pest or weed control at 200 ppm is ≥ 80%.

And the pest or weed control at 200 ppm [2]?
The pest or weed control at 200 ppm was ≥ 80%.

What about the pest or weed control at 200 ppm [3] of the same molecule?
Its pest or weed control at 200 ppm is ≥ 80%.

How did the pest or weed control at 200 ppm [1] turn out when CCN(C)/C=N/c1cc(OC)c(C(O)(CS(=O)(=O)CC)C(F)(F)F)cc1C (stereo not drawn) [E.067, N-ethyl-N′-[4-[1-(ethylsulfonylmethyl)-2,2,2-trifluoro-1-hydroxy-ethyl]-5-methoxy-2-methyl-phenyl]-N-methyl-formamidine] was run?
Its pest or weed control at 200 ppm is ≥ 80%.

And the pest or weed control at 200 ppm [2]?
Its pest or weed control at 200 ppm is ≥ 80%.

What about the pest or weed control at 200 ppm [3] of the same molecule?
The pest or weed control at 200 ppm was ≥ 80%.

With CCN(C)/C=N/c1cc(OC)c(C(O)(COCCC(C)(C)OC)C(F)(F)F)cc1C (stereo not drawn) [E.019, N-ethyl-N′-[5-methoxy-2-methyl-4-[2,2,2-trifluoro-1-hydroxy-1-[(3-methoxy-3-methyl-butoxy)methyl]ethyl]phenyl]-N-methyl-formamidine] as the molecule, how does the pest or weed control at 200 ppm [1] read?
Its pest or weed control at 200 ppm is ≥ 80%.

What about the pest or weed control at 200 ppm [2] of the same molecule?
Its pest or weed control at 200 ppm is ≥ 80%.

And the pest or weed control at 200 ppm [3]?
The pest or weed control at 200 ppm was ≥ 80%.

Which results are given for CCN(C)/C=N/c1cc(OC)c(C(O)(COC2CCc3ccccc32)C(F)(F)F)cc1C (stereo not drawn) [E.005, N-ethyl-N′-[5-methoxy-2-methyl-4-[2,2,2-trifluoro-1-hydroxy-1-(indan-1-yloxymethyl)ethyl]phenyl]-N-methyl-formamidine]?
pest or weed control at 200 ppm [1]: ≥ 80%; pest or weed control at 200 ppm [2]: ≥ 80%; pest or weed control at 200 ppm [3]: ≥ 80%

With CCN(C)/C=N/c1cc(OC)c(C(O)(COCC2CC2(F)F)C(F)(F)F)cc1C (stereo not drawn) [E.031, N′-[4-[1-[(2,2-difluorocyclopropyl)methoxymethyl]-2,2,2-trifluoro-1-hydroxy-ethyl]-5-methoxy-2-methyl-phenyl]-N-ethyl-N-methyl-formamidine] as the molecule, how does the pest or weed control at 200 ppm [1] read?
Its pest or weed control at 200 ppm is ≥ 80%.

What about the pest or weed control at 200 ppm [2] of the same molecule?
The pest or weed control at 200 ppm was ≥ 80%.

What about the pest or weed control at 200 ppm [3] of the same molecule?
Its pest or weed control at 200 ppm is ≥ 80%.

Which results are given for CCCC1OCC(C)(COCC(O)(c2cc(C)c(/N=C/N(C)CC)cc2OC)C(F)(F)F)CO1 (stereo not drawn) [E.001, N-ethyl-N′-[5-methoxy-2-methyl-4-[2,2,2-trifluoro-1-hydroxy-1-[(5-methyl-2-propyl-1,3-dioxan-5-yl)methoxymethyl]ethyl]phenyl]-N-methyl-formamidine]?
pest or weed control at 200 ppm [1]: ≥ 80%; pest or weed control at 200 ppm [2]: ≥ 80%; pest or weed control at 200 ppm [3]: ≥ 80%

With CCN(C)/C=N/c1cc(OC)c(C(O)(COC2CCC(C)(C)CC2)C(F)(F)F)cc1C (stereo not drawn) [E.038, N′-[4-[1-[(4,4-dimethylcyclohexoxy)methyl]-2,2,2-trifluoro-1-hydroxy-ethyl]-5-methoxy-2-methyl-phenyl]-N-ethyl-N-methyl-formamidine] as the molecule, how does the pest or weed control at 200 ppm [1] read?
The pest or weed control at 200 ppm was ≥ 80%.

What about the pest or weed control at 200 ppm [2] of the same molecule?
The pest or weed control at 200 ppm was ≥ 80%.

What about the pest or weed control at 200 ppm [3] of the same molecule?
Its pest or weed control at 200 ppm is ≥ 80%.

With CCO/N=C(/CC(O)(c1cc(C)c(/N=C/N(C)CC)cc1OC)C(F)(F)F)c1ccccc1 (stereo not drawn) [E.058, N′-[4-[(3Z)-3-ethoxyimino-1-hydroxy-3-phenyl-1-(trifluoromethyl)propyl]-5-methoxy-2-methyl-phenyl]-N-ethyl-N-methyl-formamidine] as the molecule, how does the pest or weed control at 200 ppm [1] read?
The pest or weed control at 200 ppm was ≥ 80%.

What about the pest or weed control at 200 ppm [2] of the same molecule?
Its pest or weed control at 200 ppm is ≥ 80%.

What about the pest or weed control at 200 ppm [3] of the same molecule?
Its pest or weed control at 200 ppm is ≥ 80%.

For CCCSCC(O)(c1cc(C)c(/N=C/N(C)CC)cc1OC)C(F)(F)F (stereo not drawn) [E.062, N-ethyl-N′-[5-methoxy-2-methyl-4-[2,2,2-trifluoro-1-hydroxy-1-(propylsulfanylmethyl)ethyl]phenyl]-N-methyl-formamidine], which pest or weed control at 200 ppm [1] is on record?
Its pest or weed control at 200 ppm is ≥ 80%.

What about the pest or weed control at 200 ppm [2] of the same molecule?
The pest or weed control at 200 ppm was ≥ 80%.

CCN(C)/C=N/c1cc(OC)c(C(O)(C2CCS(=O)(=O)CC2)C(F)(F)F)cc1C (stereo not drawn) [E.076, N′-[4-[1-(1,1-dioxothian-4-yl)-2,2,2-trifluoro-1-hydroxy-ethyl]-5-methoxy-2-methyl-phenyl]-N-ethyl-N-methyl-formamidine] was tested. Which pest or weed control at 200 ppm [2] did it give?
Its pest or weed control at 200 ppm is ≥ 80%.

Which results are given for CCN(C)/C=N/c1cc(OC)c(C(O)(COCCc2ccc(OC)c(OC)c2)C(F)(F)F)cc1C (stereo not drawn) [E.022, N′-[4-[1-[2-(3,4-dimethoxyphenyl)ethoxymethyl]-2,2,2-trifluoro-1-hydroxy-ethyl]-5-methoxy-2-methyl-phenyl]-N-ethyl-N-methyl-formamidine]?
pest or weed control at 200 ppm [1]: ≥ 80%; pest or weed control at 200 ppm [2]: ≥ 80%

For CCN(C)/C=N/c1cc(OC)c(C(O)(CSC(C)C)C(F)(F)F)cc1C (stereo not drawn) [E.071, N-ethyl-N′-[5-methoxy-2-methyl-4-[2,2,2-trifluoro-1-hydroxy-1-(isopropylsulfanylmethyl)ethyl]phenyl]-N-methyl-formamidine], which pest or weed control at 200 ppm [1] is on record?
The pest or weed control at 200 ppm was ≥ 80%.

What about the pest or weed control at 200 ppm [3] of the same molecule?
The pest or weed control at 200 ppm was ≥ 80%.
